Test results as given in patent publication US8216974B2, “Fluorine-containing organosulfur compound and pesticidal composition comprising the same” (Sumitomo Chemical Company, Limited, priority 2007, dated 2012).

What was measured:
brown rice planthopper = test: Test Example 6: foliar spray on rice plants versus comparative compound, brown rice planthopper; assay type: in vivo, Nilaparvata lugens; settings: 175 ppm, sprayed 20 ml/cup on rice plants; 30 first-instar larvae released; counted after 6 days at 25° C.
Experimental: In this Test Example, as a comparative compound, a compound disclosed in JP-A 2005-179321 (Compound No. 37 in Table 2) and represented by the formula:
[drawing 112] (hereinafter, referred to as the comparative compound (1)) was used.
Each formulation of the present compound (6) and the comparative compound (1) was obtained according to Formulation Example 15. The formulation was diluted so that the active ingredient concentration was 175 ppm to obtain a test solution.
At the same time, 50 g of culture soil, Bonsol No. 2 (manufactured by Sumitomo Chemical Co., Ltd.) was put into a polyethylene cup, and 10 to 15 seeds of rice were planted therein. The rice plants were grown until the second foliage leaf was developed, and then cut so as to have the same height of 5 cm. The test solution was sprayed on the rice plants in an amount of 20 ml/cup. After the test solution sprayed on the rice plants was dried, the rice plants were placed in a plastic cup for the purpose of preventing test worms from escaping. Thirty first-instar larvae of brown rice planthopper were released into the cup, and the cup was sealed with a lid. Then the cup was placed in a greenhouse at 25° C. for 6 days. Then, the number of parasitic brown rice planthoppers on the rice plants was examined.

Blattalla germanica = test: Test Example 4: filter paper with sucrose bait, Blattalla germanica; assay type: in vivo; settings: 500 ppm, 0.7 ml on filter paper; 2 male imagoes; after 6 days
Experimental: (§1) A formulation of any one of the present compounds (1) to (10) obtained according to Formulation Example 15 was diluted with water so that the active ingredient concentration was 500 ppm to obtain a test solution.
A filter paper having a diameter of 5.5 cm was spread on the bottom of a polyethylene cup having a diameter of 5.5 cm and 0.7 ml of the test solution was added dropwise onto the filter paper. As a bait 30 mg of sucrose was uniformly placed on the filter paper. Into the polyethylene cup, 2 male imagoes of Blattalla germanica were released and the cup was sealed with a lid. After 6 days, the number of surviving Blattalla germanica was examined and the death rate of the pest was calculated.

Culex pipiens pallens = test: Test Example 5: larvae in treated water, Culex pipiens pallens; assay type: in vivo; settings: 24 h, active ingredient concentration 3.5 ppm in water, 20 last-instar larvae, one day after, read-out: pest death rate
Experimental: as §1
To 100 mL of ion-exchanged water, 0.7 ml of the test solution was added (active ingredient concentration: 3.5 ppm). Into the solution, 20 last-instar larvae of Culex pipiens pallens were released. One day after, the number of surviving Culex pipiens pallens was examined and the death rate of the pest was calculated.

Row | Compound | number of the parasitic pests (brown rice planthopper) | pest death rate (Blattalla germanica) [%] | pest or weed control at 3.5 ppm (Culex pipiens pallens) [%]
1 | N#CC(SCCC(F)(F)F)c1ccc(Cl)cc1 (stereo not drawn) [comparative compound (1), reference compound] | ≥ 21 | – | –
2 | NC(=O)C(F)(c1cc(F)c(F)c(F)c1)S(=O)(=O)CCC(F)(F)F (stereo not drawn) [present compound (1), 2-fluoro-2-(3,3,3-trifluoropropylsulfonyl)-2-(3,4,5-trifluorophenyl)acetamide] | – | 100 | ≥ 95
3 | CC(C(N)=O)(c1cc(F)c(F)c(F)c1)S(=O)(=O)CCC(F)(F)F (stereo not drawn) [present compound (2), 2-(3,4,5-trifluorophenyl)-2-(3,3,3-trifluoropropylsulfonyl)propaneamide] | – | 100 | –
4 | NC(=O)C(F)(c1ccc(Cl)c(F)c1)S(=O)(=O)CCC(F)(F)F (stereo not drawn) [present compound (3), 2-(4-chloro-3-fluorophenyl)-2-fluoro-2-(3,3,3-trifluoropropylsulfonyl)acetamide] | – | 100 | ≥ 95
5 | NC(=O)C(F)(c1ccc(Cl)cc1)S(=O)(=O)CCC(F)(F)F (stereo not drawn) [present compound (4), 2-(4-chlorophenyl)-2-fluoro-2-(3,3,3-trifluoropropylsulfonyl)acetamide] | – | 100 | ≥ 95
6 | NC(=O)C(F)(c1ccc(C(F)(F)F)cc1)S(=O)(=O)CCC(F)(F)F (stereo not drawn) [present compound (5), 2-fluoro-2-(3,3,3-trifluoropropylsulfonyl)-2-(4-trifluoromethylphenyl)acetamide] | – | 100 | ≥ 95
7 | NC(=O)C(SCCC(F)(F)F)c1ccc(Cl)cc1 (stereo not drawn) [present compound (6), 2-(4-chlorophenyl)-2-(3,3,3-trifluoropropylsulfanyl)acetamide] | ≤ 3 | – | –
8 | NC(=O)C(c1ccc(Cl)cc1)S(=O)(=O)CCC(F)(F)F (stereo not drawn) [present compound (7), 2-(4-chlorophenyl)-2-(3,3,3-trifluoropropylsulfonyl)acetamide] | – | – | ≥ 10
9 | NC(=O)C(Cl)(Cc1cccc(C(F)(F)F)c1)S(=O)(=O)CCC(F)(F)F (stereo not drawn) [present compound (9), 2-chloro-3-(3-trifluoromethylphenyl)-2-(3.3.3-trifluoropropylsulfonyl)propaneamide] | – | ≥ 50 | ≥ 10
10 | NC(=O)C(Cl)(Cc1ccccc1C(F)(F)F)S(=O)(=O)CCC(F)(F)F (stereo not drawn) [present compound (10), 2-chloro-3-(2-trifluoromethylphenyl)-2-(3,3,3-trifluoropropylsulfonyl)propaneamide] | – | – | ≥ 95
